PubChem BioAssay AID1963985 (Molecular Pharmacology Branch, DTP, NCI, 2024)
pIC50: −log10 of the molar value.

Tested on: 252836-082-R-J2-PDC tumor spheroids, viability
Experiment: Anticancer human tumor 252836-082-R-J2-PDC patient-derived head and neck squamous cell carcinoma cell line growth inhibition [PI3K]
Settings: spheroids with HUVEC and MSC; for viability, T/C: stronger effect = lower value
Summary of the method: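 Targeted small molecules plus PI3K inhibitors, half-log dose series from Cmax (default top 10 microM), were applied to heterotypic spheroids of cancer cells with HUVEC and MSCs. Viability indicated growth inhibition.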

[1] = curve of first compound, second compound 0.00316 µM
[2] = curve of first compound, second compound 0.01 µM
[3] = curve of first compound, second compound 0.0316 µM
[4] = curve of first compound, second compound 0.1 µM
[5] = curve of first compound, second compound 0.316 µM
[6] = curve of first compound, second compound 1 µM
[7] = second compound 0.00316 µM, first compound 0.0316 µM
[8] = second compound 0.00316 µM, first compound 0.1 µM
[9] = second compound 0.00316 µM, first compound 0.316 µM
[10] = second compound 0.00316 µM, first compound 1 µM
[11] = second compound 0.00316 µM, first compound 3.16 µM
[12] = second compound 0.00316 µM, first compound 10 µM
[13] = second compound 0.01 µM, first compound 0.0316 µM
[14] = second compound 0.01 µM, first compound 0.1 µM
[15] = second compound 0.01 µM, first compound 0.316 µM
[16] = second compound 0.01 µM, first compound 1 µM
[17] = second compound 0.01 µM, first compound 3.16 µM
[18] = second compound 0.01 µM, first compound 10 µM
[19] = second compound 0.0316 µM, first compound 0.0316 µM
[20] = second compound 0.0316 µM, first compound 0.1 µM
[21] = second compound 0.0316 µM, first compound 0.316 µM
[22] = second compound 0.0316 µM, first compound 1 µM
[23] = second compound 0.0316 µM, first compound 3.16 µM
[24] = second compound 0.0316 µM, first compound 10 µM
[25] = second compound 0.1 µM, first compound 0.0316 µM
[26] = second compound 0.1 µM, first compound 0.1 µM
[27] = second compound 0.1 µM, first compound 0.316 µM
[28] = second compound 0.1 µM, first compound 1 µM
[29] = second compound 0.1 µM, first compound 3.16 µM
[30] = second compound 0.1 µM, first compound 10 µM
[31] = second compound 0.316 µM, first compound 0.0316 µM
[32] = second compound 0.316 µM, first compound 0.1 µM
[33] = second compound 0.316 µM, first compound 0.316 µM
[34] = second compound 0.316 µM, first compound 1 µM
[35] = second compound 0.316 µM, first compound 3.16 µM
[36] = second compound 0.316 µM, first compound 10 µM
[37] = second compound 1 µM, first compound 0.0316 µM
[38] = second compound 1 µM, first compound 0.1 µM
[39] = second compound 1 µM, first compound 0.316 µM
[40] = second compound 1 µM, first compound 1 µM
[41] = second compound 1 µM, first compound 3.16 µM
[42] = second compound 1 µM, first compound 10 µM
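Note: spheroids exposed to agents for seven days before readout.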
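Throughout, for viability, T/C: percent of vehicle DMSO control viability so 100% = untreated growth.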

## CNC(=O)c1ccc(N2C(=S)N(c3ccc(C#N)c(C(F)(F)F)c3)C(=O)C2(C)C)cc1F + COc1c(OCCCN2CCOCC2)ccc2c3n(c(=NC(=O)c4cnc(N)nc4)nc12)CCN3
[1]
  pIC50: < 5.00
[2]
  pIC50: < 5.00
[3]
  pIC50: < 5.00
[4]
  pIC50: > 7.50
[5]
  pIC50: > 7.50
[6]
  pIC50: > 7.50
[7]
  viability, T/C: 97.9%
[8]
  viability, T/C: 85.8%
[9]
  viability, T/C: 87.3%
[10]
  viability, T/C: 96.5%
[11]
  viability, T/C: 96.2%
[12]
  viability, T/C: 77.7%
[13]
  viability, T/C: 73%
[14]
  viability, T/C: 64.5%
[15]
  viability, T/C: 79.5%
[16]
  viability, T/C: 71.9%
[17]
  viability, T/C: 76.1%
[18]
  viability, T/C: 80%
[19]
  viability, T/C: 60.7%
[20]
  viability, T/C: 60.1%
[21]
  viability, T/C: 49.9%
[22]
  viability, T/C: 60.9%
[23]
  viability, T/C: 62.8%
[24]
  viability, T/C: 54.3%
[25]
  viability, T/C: 36%
[26]
  viability, T/C: 38%
[27]
  viability, T/C: 36%
[28]
  viability, T/C: 36.3%
[29]
  viability, T/C: 33.5%
[30]
  viability, T/C: 34.5%
[31]
  viability, T/C: 19%
[32]
  viability, T/C: 17.2%
[33]
  viability, T/C: 17.1%
[34]
  viability, T/C: 17.3%
[35]
  viability, T/C: 17.4%
[36]
  viability, T/C: 13.4%
[37]
  viability, T/C: 4.5%
[38]
  viability, T/C: 3.94%
[39]
  viability, T/C: 5.87%
[40]
  viability, T/C: 4.83%
[41]
  viability, T/C: 4.62%
[42]
  viability, T/C: 4.12%

## CC1(C)CCC(CN2CCN(c3ccc(C(=O)NS(=O)(=O)c4ccc(NCC5CCOCC5)c([N+](=O)[O-])c4)c(Oc4cnc5[nH]ccc5c4)c3)CC2)=C(c2ccc(Cl)cc2)C1 + COc1c(OCCCN2CCOCC2)ccc2c3n(c(=NC(=O)c4cnc(N)nc4)nc12)CCN3
[1]
  pIC50: 5.24
[2]
  pIC50: 5.28
[3]
  pIC50: 5.49
[4]
  pIC50: > 7.50
[5]
  pIC50: > 7.50
[6]
  pIC50: > 7.50
[7]
  viability, T/C: 89.7%
[8]
  viability, T/C: 89.2%
[9]
  viability, T/C: 89.3%
[10]
  viability, T/C: 83.9%
[11]
  viability, T/C: 80.7%
[12]
  viability, T/C: 23%
[13]
  viability, T/C: 75.8%
[14]
  viability, T/C: 67.3%
[15]
  viability, T/C: 76.2%
[16]
  viability, T/C: 84.8%
[17]
  viability, T/C: 80.4%
[18]
  viability, T/C: 15.9%
[19]
  viability, T/C: 59.2%
[20]
  viability, T/C: 56%
[21]
  viability, T/C: 53.3%
[22]
  viability, T/C: 58.9%
[23]
  viability, T/C: 50.2%
[24]
  viability, T/C: 13.9%
[25]
  viability, T/C: 35.9%
[26]
  viability, T/C: 35.8%
[27]
  viability, T/C: 37%
[28]
  viability, T/C: 35.3%
[29]
  viability, T/C: 45.2%
[30]
  viability, T/C: 14.2%
[31]
  viability, T/C: 17.2%
[32]
  viability, T/C: 16.5%
[33]
  viability, T/C: 15.8%
[34]
  viability, T/C: 16.9%
[35]
  viability, T/C: 17.1%
[36]
  viability, T/C: 5.65%
[37]
  viability, T/C: 5.01%
[38]
  viability, T/C: 3.96%
[39]
  viability, T/C: 4.59%
[40]
  viability, T/C: 3.64%
[41]
  viability, T/C: 4.04%
[42]
  viability, T/C: 1.11%

## C#Cc1c(F)ccc2cc(O)cc(-c3ncc4c(N5CC6CCC(C5)N6)nc(OCC56CCCN5CC(F)C6)nc4c3F)c12 (stereo not given) + CC(Nc1ccc2c(c1)OCCn1cc(N3C(=O)OCC3C(F)F)nc1-2)C(N)=O
[1]
  pIC50: < 5.00
[2]
  pIC50: < 5.00
[3]
  pIC50: < 5.00
[4]
  pIC50: 5.43
[5]
  pIC50: 7.09
[6]
  pIC50: > 7.50
[7]
  viability, T/C: 91.8%
[8]
  viability, T/C: 72.8%
[9]
  viability, T/C: 76.1%
[10]
  viability, T/C: 82.2%
[11]
  viability, T/C: 72%
[12]
  viability, T/C: 50.7%
[13]
  viability, T/C: 83.7%
[14]
  viability, T/C: 73.6%
[15]
  viability, T/C: 78.6%
[16]
  viability, T/C: 71%
[17]
  viability, T/C: 75.6%
[18]
  viability, T/C: 59.5%
[19]
  viability, T/C: 74.6%
[20]
  viability, T/C: 67.4%
[21]
  viability, T/C: 68.9%
[22]
  viability, T/C: 58.8%
[23]
  viability, T/C: 56%
[24]
  viability, T/C: 56.1%
[25]
  viability, T/C: 62.9%
[26]
  viability, T/C: 56.3%
[27]
  viability, T/C: 61.9%
[28]
  viability, T/C: 61.1%
[29]
  viability, T/C: 49.3%
[30]
  viability, T/C: 38.9%
[31]
  viability, T/C: 56%
[32]
  viability, T/C: 45.9%
[33]
  viability, T/C: 46.7%
[34]
  viability, T/C: 38%
[35]
  viability, T/C: 39.4%
[36]
  viability, T/C: 32.6%
[37]
  viability, T/C: 46.1%
[38]
  viability, T/C: 38.7%
[39]
  viability, T/C: 45.1%
[40]
  viability, T/C: 36.6%
[41]
  viability, T/C: 33.2%
[42]
  viability, T/C: 26.6%

## C[C@@H](NC(=O)c1ncnc(N)c1Cl)c1ncc(C(=O)Nc2cc(C(F)(F)F)c(Cl)cn2)s1 + Cc1nc(NC(=O)N2CCCC2C(N)=O)sc1-c1ccnc(C(C)(C)C(F)(F)F)c1
[3]
  pIC50: < 5.00
[4]
  pIC50: < 5.00
[5]
  pIC50: < 5.00
[6]
  pIC50: < 5.00
Curve of first compound, second compound 3.16 µM
  pIC50: > 7.50
Curve of first compound, second compound 10 µM
  pIC50: > 7.50
[19]
  viability, T/C: 95.5%
[20]
  viability, T/C: 84.1%
[21]
  viability, T/C: 88.9%
[22]
  viability, T/C: 81.2%
[23]
  viability, T/C: 76.9%
[24]
  viability, T/C: 82.5%
[25]
  viability, T/C: 79.7%
[26]
  viability, T/C: 70.8%
[27]
  viability, T/C: 85.2%
[28]
  viability, T/C: 74.1%
[29]
  viability, T/C: 85.9%
[30]
  viability, T/C: 74.1%
[31]
  viability, T/C: 72%
[32]
  viability, T/C: 79.2%
[33]
  viability, T/C: 69.8%
[34]
  viability, T/C: 78.4%
[35]
  viability, T/C: 74.7%
[36]
  viability, T/C: 69.7%
[37]
  viability, T/C: 58.6%
[38]
  viability, T/C: 62%
[39]
  viability, T/C: 61.9%
[40]
  viability, T/C: 54.9%
[41]
  viability, T/C: 61.3%
[42]
  viability, T/C: 50.8%
Second compound 3.16 µM, first compound 0.0316 µM
  viability, T/C: 40%
Second compound 3.16 µM, first compound 0.1 µM
  viability, T/C: 48.6%
Second compound 3.16 µM, first compound 0.316 µM
  viability, T/C: 43.2%
Second compound 3.16 µM, first compound 1 µM
  viability, T/C: 42.5%
Second compound 3.16 µM, first compound 3.16 µM
  viability, T/C: 42.4%
Second compound 3.16 µM, first compound 10 µM
  viability, T/C: 42.9%
Second compound 10 µM, first compound 0.0316 µM
  viability, T/C: 35.2%
Second compound 10 µM, first compound 0.1 µM
  viability, T/C: 39.6%
Second compound 10 µM, first compound 0.316 µM
  viability, T/C: 35.2%
Second compound 10 µM, first compound 1 µM
  viability, T/C: 30.6%
Second compound 10 µM, first compound 3.16 µM
  viability, T/C: 23.4%
Second compound 10 µM, first compound 10 µM
  viability, T/C: 12.6%

## CC1(C)CCC(Nc2ncc(C(F)(F)F)c(-c3c[nH]c4c(P(C)(C)=O)c(C#N)ccc34)n2)CN1 (stereo not given)
Compound 0.0316 µM
  viability, T/C: 30.1% [middle of 4 runs]
Compound 0.1 µM
  viability, T/C: 29.5% [middle of 4 runs]
Compound 0.316 µM
  viability, T/C: 35.8% [middle of 4 runs]
Compound 1 µM
  viability, T/C: 33% [middle of 4 runs]
Compound 3.16 µM
  viability, T/C: 32.1% [middle of 4 runs]
Compound 10 µM
  viability, T/C: 7.06% [middle of 4 runs]
Curve of compound
  pIC50: > 7.50
